Results from patent publication US11453683B1, “KRas G12D inhibitors” (Mirati Therapeutics, Inc., priority 2019, dated 2022).

Legend:
KRas G12D = KRas G12D (Homo sapiens (Human), UniProt P01116, G12D); assay: KRas G12D Binding Assay (TR-FRET displacement); conditions: TR-FRET displacement of Cy5 labelled tracer, GDP-loaded KRAS G12D, 60 minute incubation at 22° C.
Experimental: After a 60 minute incubation at 22° C., the reaction was measured using a PerkinElmer EnVision multimode plate reader via TR-FRET dual wavelength detection, and the percent of control (POC) calculated using a ratiometric emission factor. […] The POC values were fit to a 4-parameter logistic curve and the IC50 value was determined as the concentration where the curve crosses 50 POC.

[1] = test system: KRas G12D-mediated phosphorylation of ERK; assay: Inhibition of KRas G12D-mediated phosphorylation of ERK in AGS cells; type: cell-based; conditions: Homo sapiens; AGS cells expressing G12D, 3 hours, phospho-ERK normalized to GAPDH
Method in brief: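 Fixed, methanol-permeabilized; phospho-ERK (Thr202/Tyr204) by in-cell immunofluorescence normalized to GAPDH. Percent of DMSO control, IC50 by 4-parameter fit.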

Sequence of KRas G12D (P01116 other isoform, or with tags, fused parts or gaps G12D): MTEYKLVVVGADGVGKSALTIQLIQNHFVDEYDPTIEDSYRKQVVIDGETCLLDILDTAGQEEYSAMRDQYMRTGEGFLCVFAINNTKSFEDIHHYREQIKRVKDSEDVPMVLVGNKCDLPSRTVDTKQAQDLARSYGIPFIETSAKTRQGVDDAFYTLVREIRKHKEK

| Compound | IC50 (KRas G12D) [nM] | IC50 [1] [nM] |
| --- | --- | --- |
| CC(C)(C)c1ccccc1-c1ncc2c(N3CC4CCC(C3)N4)nc(OC[C@@]34CCCN3C[C@H](F)C4)nc2c1F (racemic) [Example 362, 4-((1R,5S)-3,8-diazabicyclo[3.2.1]octan-3-yl)-7-(2-(tert-butyl)phenyl)-8-fluoro-2-((2-fluorotetrahydro-1H-pyrrolizin-7a(5H)-yl)methoxy)pyrido[4,3-d]pyrimidine (racemic, trans)] | 106 | 10500 |
| CC(C)c1cccc2cc(O)cc(-c3ncc4c(N5CC6CCC(C5)N6)nc(OC[C@@]56CCCN5C[C@H](F)C6)nc4c3F)c12 (racemic) [Example 364, 4-(4-((1R,5S)-3,8-diazabicyclo[3.2.1]octan-3-yl)-8-fluoro-2-((2-fluorotetrahydro-1H-pyrrolizin-7a(5H)-yl)methoxy)pyrido[4,3-d]pyrimidin-7-yl)-5-isopropylnaphthalen-2-ol (racemic, trans)] | 2.3 | 322 |
| Oc1cc(-c2ncc3c(N4CC5CCC(C4)N5)nc(OC[C@@]45CCCN4C[C@H](F)C5)nc3c2F)c2c(F)cccc2c1 (racemic) [Example 366, 4-(4-((1R,5S)-3,8-diazabicyclo[3.2.1]octan-3-yl)-8-fluoro-2-((2-fluorotetrahydro-1H-pyrrolizin-7a(5H)-yl)methoxy)pyrido[4,3-d]pyrimidin-7-yl)-5-fluoronaphthalen-2-ol (racemic, trans)] | 0.5 | 7 |
| Fc1c(-c2ccccc2C2CC2)ncc2c(N3CC4CCC(C3)N4)nc(OC[C@@]34CCCN3C[C@H](F)C4)nc12 (racemic) [Example 368, 4-((1R,5S)-3,8-diazabicyclo[3.2.1]octan-3-yl)-7-(2-cyclopropylphenyl)-8-fluoro-2-((2-fluorotetrahydro-1H-pyrrolizin-7a(5H)-yl)methoxy)pyrido[4,3-d]pyrimidine (racemic, trans)] | 208 | – |
| Oc1cccc(F)c1-c1ncc2c(N3CC4CCC(C3)N4)nc(OCC34CCCN3C[C@H](F)C4)nc2c1F (mixture of isomers) [Example 369, 2-(4-((1R,5S)-3,8-diazabicyclo[3.2.1]octan-3-yl)-8-fluoro-2-((2-fluorotetrahydro-1H-pyrrolizin-7a(5H)-yl)methoxy)pyrido[4,3-d]pyrimidin-7-yl)-3-fluorophenol (racemic, trans)] | 221 | – |
| Fc1c(-c2ccccc2C2CCC2)ncc2c(N3CC4CCC(C3)N4)nc(OCC34CCCN3C[C@H](F)C4)nc12 (mixture of isomers) [Example 371, 4-((1R,5S)-3,8-diazabicyclo[3.2.1]octan-3-yl)-7-(2-cyclobutylphenyl)-8-fluoro-2-((2-fluorotetrahydro-1H-pyrrolizin-7a(5H)-yl)methoxy)pyrido[4,3-d]pyrimidine (racemic, trans)] | 394 | – |
| CSc1cccc2cc(O)cc(-c3ncc4c(N5CC6CCC(C5)N6)nc(OCC56CCCN5C[C@H](F)C6)nc4c3F)c12 (mixture of isomers) [Example 372, 4-(4-((1R,5S)-3,8-diazabicyclo[3.2.1]octan-3-yl)-8-fluoro-2-((2-fluorotetrahydro-1H-pyrrolizin-7a(5H)-yl)methoxy)pyrido[4,3-d]pyrimidin-7-yl)-5-(methylthio)naphthalen-2-ol (racemic, trans)] | 0.7 | 10.5 |
| Cc1cc2[nH]ncc2c(-c2ncc3c(N4CC5CCC(C4)N5)nc(OC[C@@]45CCCN4C[C@H](F)C5)nc3c2F)c1Cl (racemic) [Example 376, 4-((1R,5S)-3,8-diazabicyclo[3.2.1]octan-3-yl)-7-(5-chloro-6-methyl-1H-indazol-4-yl)-8-fluoro-2-((2-fluorotetrahydro-1H-pyrrolizin-7a(5H)-yl)methoxy)pyrido[4,3-d]pyrimidine (racemic, trans)] | 2.6 | – |
| Nc1ccc(Cl)c(F)c1-c1ncc2c(N3CC4CCC(C3)N4)nc(OC[C@@]34CCCN3C[C@H](F)C4)nc2c1F (racemic) [Example 380, 2-(4-((1R,5S)-3,8-diazabicyclo[3.2.1]octan-3-yl)-8-fluoro-2-((2-fluorotetrahydro-1H-pyrrolizin-7a(5H)-yl)methoxy)pyrido[4,3-d]pyrimidin-7-yl)-4-chloro-3-fluoroaniline bis(2,2,2-trifluoroacetate) (racemic, trans)] | 65.7 | > 16700 |
| Fc1c(-c2ccccc2CC(F)(F)F)ncc2c(N3CC4CCC(C3)N4)nc(OC[C@@]34CCCN3C[C@H](F)C4)nc12 (racemic) [Example 383, 4-((1R,5S)-3,8-diazabicyclo[3.2.1]octan-3-yl)-8-fluoro-2-((2-fluorotetrahydro-1H-pyrrolizin-7a(5H)-yl)methoxy)-7-(2-(2,2,2-trifluoroethyl)phenyl)pyrido[4,3-d]pyrimidine (racemic, trans)] | 586 | – |
| COc1cc(-c2ncc3c(N4CC5CCC(C4)N5)nc(OC[C@@]45CCCN4C[C@H](F)C5)nc3c2F)c2ccccc2c1 (racemic) [Example 385, 4-((1R,5S)-3,8-diazabicyclo[3.2.1]octan-3-yl)-8-fluoro-2-((2-fluorotetrahydro-1H-pyrrolizin-7a(5H)-yl)methoxy)-7-(3-methoxynaphthalen-1-yl)pyrido[4,3-d]pyrimidine (racemic, trans)] | 3080 | > 16700 |
| Oc1ccc(SC(F)(F)F)c(-c2ncc3c(N4CC5CCC(C4)N5)nc(OC[C@@]45CCCN4C[C@H](F)C5)nc3c2F)c1 (racemic) [Example 386, 3-(4-((1R,5S)-3,8-diazabicyclo[3.2.1]octan-3-yl)-8-fluoro-2-((2-fluorotetrahydro-1H-pyrrolizin-7a(5H)-yl)methoxy)pyrido[4,3-d]pyrimidin-7-yl)-4-((trifluoromethyl)thio)phenol (racemic, trans)] | 2 | 320 |
| OCC1CCC2(COc3nc(N4C[C@H]5CC[C@@H](C4)N5)c4cnc(-c5cccc6cccc(Cl)c56)c(F)c4n3)CCCN12 (stereo partly drawn) [Example 135, (7a-(((4-((1R,5S)-3,8-diazabicyclo[3.2.1]octan-3-yl)-7-(8-chloronaphthalen-1-yl)-8-fluoropyrido[4,3-d]pyrimidin-2-yl)oxy)methyl)hexahydro-1H-pyrrolizin-3-yl)methanol] | 2.1 | 4820 |
| CO[C@H]1C[C@@H](COc2nc(N3C[C@H]4CC[C@@H](C3)N4)c3cnc(-c4cccc5cccc(Cl)c45)c(F)c3n2)N(C)C1 [Example 149, 4-((1R,5S)-3,8-diazabicyclo[3.2.1]octan-3-yl)-7-(8-chloronaphthalen-1-yl)-8-fluoro-2-(((2S,4S)-4-methoxy-1-methylpyrrolidin-2-yl)methoxy)pyrido[4,3-d]pyrimidine] | 870 | – |
| [2H]C#Cc1cccc2cccc(-c3ncc4c(N5C[C@H]6CC[C@@H](C5)N6)nc(OCC56CCCN5CCC6)nc4c3F)c12 [Example 278, 4-((1R,5S)-3,8-diazabicyclo[3.2.1]octan-3-yl)-7-(8-(ethynyl-d)naphthalen-1-yl)-8-fluoro-2-((tetrahydro-1H-pyrrolizin-7a(5H)-yl)methoxy)pyrido[4,3-d]pyrimidine] | 0.7 | 104 |
| FCC1CCC2(COc3nc(N4C[C@H]5CC[C@@H](C4)N5)c4cnc(-c5cccc6cccc(Cl)c56)c(F)c4n3)CCCN12 (stereo partly drawn) [Example 347, 4-((1R,5S)-3,8-diazabicyclo[3.2.1]octan-3-yl)-7-(8-chloronaphthalen-1-yl)-8-fluoro-2-((3-(fluoromethyl)tetrahydro-1H-pyrrolizin-7a(5H)-yl)methoxy)pyrido[4,3-d]pyrimidine] | 2.1 | 459 |
